# In publication PMC8560939 (Scientific Reports, 2021):
# Where two headings read alike, the source gives them in different places.
# Assays:
# CC(=O)C(=O)O = tested on: T1, CC(=O)C(=O)O; assay: Determination of substrate Km for LDHB (assay optimisation); assay type: biochemical, human; conditions: other: 500 µM NADH, increasing pyruvate
# T1 construct: purchased R&D Systems
# Procedure: Next, we optimised the assay conditions of RF-MS. Titration of human LDHB was examined at concentrations ranging from 0.0625 to 1 nM. […] We used 0.25 nM LDHB throughout assay development and screening to ensure enzyme activation. […] The Km values obtained from the two assays were consistent with the reported values for LDHB[15],[16].
# (§1) The reaction product was measured by RF-MS. To estimate the Km and Vmax values, the initial rates were fit to the Michaelis–Menten equation. EC50 and Hill slope calculation and curve fitting using four-parameter fits were performed using GraphPad Prism v6.07 (GraphPad Software, San Diego, CA, USA) or XLfit (IDBS, Guildford, UK) with nonlinear regression analysis, wherein the EC50 value equaled the concentration at which the inflection point of the fitted model was reached. The quality and robustness of the screening campaign process were determined by analysing the Z’ factor.
# Data were fitted to the Michaelis–Menten equations to obtain the kinetic constant Km using GraphPad Prism. Data are shown as mean ± standard deviation (n = 4).
# [1] = tested on: NC(=O)C1=CN([C@@H]2O[C@H](COP(=O)(O)OP(=O)(O)OC[C@H]3O[C@@H](n4cnc5c(N)ncnc54)[C@H](O)[C@@H]3O)[C@@H](O)[C@H]2O)C=CC1; assay: purified protein, by the assay type; conditions: other: 500 μM pyruvate, increasing NADH
# LDHB [2] = target: T2, LDHB (Homo sapiens, UniProt P07195); assay: LDHB enzyme assay by RapidFire-MS (NADH to NAD+ conversion); assay type: biochemical; conditions: RF-MS
# T2 construct: purchased R&D Systems
# Procedure: (§2) To compare the selectivity potency of the 22 selected compounds, we evaluated the compounds against human LDHB and LDHA by RF-MS. […] The Km value was also determined for the LDHA reaction. All EC50 values are listed in Supplementary Table 1.
# We screened for compounds (final concentration: 10 μM) within pooled libraries consisting of more than 345,000 compounds. Each compound in DMSO (1 mM) was dispensed into 384-well V base plates (100 nL/well) using an Echo 555 acoustic dispenser (Labcyte, Sunnyvale, CA, USA). LDHB (5 μL) was diluted in assay buffer (20 mM Tris [pH 7.5], containing 2 mM DTT, 0.005% Triton X100, and 0.005% BSA) and dispensed into assay plates (final concentration: 0.25 nM). […] After incubation for 30 min at room temperature, acetonitrile (10 μL) and water (50 μL) were added to quench the reaction. All additions were performed using a Multidrop Combi (Thermo Fisher Scientific, Waltham, MA, USA). Assay plates were sealed and centrifuged (2700× g for 10 min) before storage at − 20 °C.
# (§3) For RF-MS (Agilent, Wakefield, MA, USA), the enzyme reaction solution (5 μL) was aspirated directly from the quenched assay plates and loaded onto a C8 solid-phase extraction cartridge (Agilent) with a mobile phase of water containing DHAA (5 mM) for 2500 ms at a flow rate of 1.25 mL/min. The analytes were then co-eluted into the mass spectrometer using water:acetonitrile:acetone (2:1:1) containing ammonium acetate (5 mM) for 5000 ms at a flow rate of 1.0 ml/min. […] The extracted ion chromatograms for each transition were integrated and processed using RapidFire Integrator (Agilent). The data for each well were normalised using the monitoring product conversion with the ratio of AUCproduct / (AUCproduct + AUCsubstrate).
# To determine the compound activities, percent inhibition data normalised to 0% (DMSO only) and 100% inhibition (no-enzyme control) wells were calculated. Data analysis was performed using the Tibco Spotfire (Boston, MA, USA) packages.
# as §1
# LDHB [3] = target: T2, LDHB; assay: Substrate-competition assay (varying NADH or pyruvate); assay type: biochemical; conditions: for Vmax (NADH): NADH titration; for Vmax (Pyruvate): pyruvate titration
# Procedure: To elucidate the underlying inhibitory mechanism, substrate competition assays were performed. LDHB inhibitory activity for AXKO-0046 was assessed at different concentrations of the substrate.
# Moreover, the Km and Vmax values for LDHB were determined in the presence AXKO-0046. As the AXKO-0046 concentration increased in the reaction, both Vmax and Km decreased proportionally (Supplementary Fig. 3 and Table 1). The Lineweaver–Burke plot lines were nearly parallel (Fig. 3c,d), indicating uncompetitive inhibition with a strong preference for inhibiting the enzyme–substrate complex.
# A solution of AXKO-0046 (0.00001, 0.0001, 0.001, 0.01, 0.1, 1, 10, and 100 μM) with 0.25 nM LDHB was then added. The enzymatic reactions were performed at room temperature for 15 min in triplicate. At each inhibitor concentration, the dependence of the initial reaction velocity on the substrate concentration was fitted to a nonlinear Michaelis–Menten model to obtain the Km and Vmax values using GraphPad Prism. Lineweaver–Burk plots were generated by superimposing the data of 1/[velocity] and 1/[substrate] and the line corresponding to the Michaelis–Menten nonlinear fit.
# LDHB [4] = target: T2, LDHB; assay: Time-dependent inhibition (pre-incubation of AXKO-0046 and LDHB); assay type: biochemical; conditions: pre-incubation with LDHB up to 120 min
# Procedure: We then assessed whether there was any time dependence to the onset of inhibition by varying the time for which AXKO-0046 and LDHB were pre-incubated before initiating the enzymatic reaction.
# Supplementary Figure 4. Time-dependent inhibition of LDHB activity by AXKO-0046. Time-dependent inhibition was measured by pre-incubating AXKO-0046 and LDHB for 0, 30, 60, or 120 min, as indicated, before initiating the LDHB reaction. Data are shown as mean (n = 2).
# Cellular activity = assay type: cell-based
# human LDHA = target: T3, human LDHA (Homo sapiens, UniProt P00338); assay: LDHA enzyme assay by RapidFire-MS; assay type: biochemical
# T3 construct: purchased R&D Systems
# Procedure: as §2
# These concentrations were chosen based on fitting to the Michaelis–Menten model with the Km values (Supplementary Figure S2).
# as §3
# To determine the compound activities, percent inhibition data normalised to 0% (DMSO only) and 100% inhibition (no-enzyme control) wells were calculated. […]
# The reaction product was measured by RF-MS. […] The quality and robustness of the screening campaign process were determined by analysing the Z’ factor.
# [5] = read-out: EC50 (μM), LDHB inhibitory activity of AXKO-0046 derivatives
# T2 sequence (P07195 whole entry): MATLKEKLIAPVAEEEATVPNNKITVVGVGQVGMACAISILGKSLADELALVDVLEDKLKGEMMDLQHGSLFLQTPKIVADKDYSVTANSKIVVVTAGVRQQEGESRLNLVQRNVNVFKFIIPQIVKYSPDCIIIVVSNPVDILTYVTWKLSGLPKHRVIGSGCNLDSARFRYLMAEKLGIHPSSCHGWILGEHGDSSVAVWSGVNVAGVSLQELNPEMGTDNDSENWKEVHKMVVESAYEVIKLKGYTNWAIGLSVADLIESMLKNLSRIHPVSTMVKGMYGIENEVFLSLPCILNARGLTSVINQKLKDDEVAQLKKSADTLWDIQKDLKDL
compound,measurement,setting,value
human LDHB (Homo sapiens),Km,CC(=O)C(=O)O,116 µM
same,Km,[1],64 µM
CN(CCc1c(CN(C)C2CCCCCC2)[nH]c2ccccc12)Cc1ccccc1 [AXKO-0058],EC50,LDHB [2]; [5],8.3 µM
CN(Cc1[nH]c2ccccc2c1CCNCc1ccccc1)C1CCCCCC1 [AXKO-0077],EC50,LDHB [2]; [5],7.4 µM
CN(CCc1c(CNC2CCCCCC2)[nH]c2ccccc12)Cc1ccccc1 [AXKO-0060],EC50,LDHB [2]; [5],0.25 µM
"c1ccc(CNCCc2c(CNC3CCCCCC3)[nH]c3ccccc23)cc1 [AXKO-0046, N-({3-[2-(benzylamino)ethyl]-1H-indol-2-yl}methyl) cycloheptanamine]",mode of inhibition with respect to NADH and pyruvate,LDHB [3],uncompetitive with both substrates
same,Vmax (NADH),"LDHB [3]; AXKO-0046 0.00001 µM, 100 μM pyruvate",10.1 µM/min
same,Vmax (Pyruvate),"LDHB [3]; AXKO-0046 0.00001 µM, 100 μM NADH",7.3 µM/min
same,Vmax (NADH),"LDHB [3]; AXKO-0046 0.0001 µM, 100 μM pyruvate",10.7 µM/min
same,Vmax (Pyruvate),"LDHB [3]; AXKO-0046 0.0001 µM, 100 μM NADH",6.9 µM/min
same,Vmax (NADH),"LDHB [3]; AXKO-0046 0.001 µM, 100 μM pyruvate",9.7 µM/min
same,Vmax (Pyruvate),"LDHB [3]; AXKO-0046 0.001 µM, 100 μM NADH",6.5 µM/min
same,Vmax (NADH),"LDHB [3]; AXKO-0046 0.01 µM, 100 μM pyruvate",8.3 µM/min
same,Vmax (Pyruvate),"LDHB [3]; AXKO-0046 0.01 µM, 100 μM NADH",6.6 µM/min
same,Vmax (NADH),"LDHB [3]; AXKO-0046 0.1 µM, 100 μM pyruvate",6.0 µM/min
same,Vmax (Pyruvate),"LDHB [3]; AXKO-0046 0.1 µM, 100 μM NADH",4.3 µM/min
same,Vmax (NADH),"LDHB [3]; AXKO-0046 1 µM, 100 μM pyruvate",2.9 µM/min
same,Vmax (Pyruvate),"LDHB [3]; AXKO-0046 1 µM, 100 μM NADH",2.0 µM/min
same,Vmax (NADH),"LDHB [3]; AXKO-0046 10 µM, 100 μM pyruvate",2.1 µM/min
same,Vmax (Pyruvate),"LDHB [3]; AXKO-0046 10 µM, 100 μM NADH",1.6 µM/min
same,Vmax (NADH),"LDHB [3]; AXKO-0046 100 µM, 100 μM pyruvate",2.2 µM/min
same,Vmax (Pyruvate),"LDHB [3]; AXKO-0046 100 µM, 100 μM NADH",1.6 µM/min
same,IC50,"LDHB [3]; NADH 30 μM, 100 μM pyruvate",702 nM
same,IC50,"LDHB [3]; NADH 50 μM, 100 μM pyruvate",330 nM
same,IC50,"LDHB [3]; NADH 100 μM, 100 μM pyruvate",223 nM
same,IC50,"LDHB [3]; NADH 200 μM, 100 μM pyruvate",94.2 nM
same,IC50,"LDHB [3]; Pyruvate 30 μM, 100 μM NADH",197 nM
same,IC50,"LDHB [3]; Pyruvate 50 μM, 100 μM NADH",114 nM
same,IC50,"LDHB [3]; Pyruvate 200 μM, 100 μM NADH",96.3 nM
same,inhibition potential with pre-incubation time,LDHB [4],did not increase with pre-incubation time
same,cellular activity,Cellular activity,no potent cellular activity
same,EC50,"LDHB [2]; four-parameter fit, read-out: EC50 for LDHB",0.042 µM
same,inhibition of LDHA (concentration response curve),human LDHA,did not inhibit LDHA
Cn1c(CNC2CCCCCC2)c(CCNCc2ccccc2)c2ccccc21 [AXKO-0067],EC50,LDHB [2]; [5],> 100 µM
